Test results as given in PubChem BioAssay AID2060625 (Molecular Pharmacology Branch, DTP, NCI, 2025).
Several values for one entry are separate records, joined by “and”; a condition that tells them apart may be missing. Equal values may be shown once.

System: 186277-243-T-J2-PDC spheroids with HUVEC/MSC, viability
Assay: Anticancer human tumor 186277-243-T-J2-PDC patient-derived colon adenocarcinoma cell line growth inhibition [CLK]
Conditions: for viability, T/C: stronger effect = lower value
Outline: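 Patient-derived tumor cells grown as complex spheroids with HUVEC endothelial cells and mesenchymal stem cells, treated with drug combinations. Concentrations descend in half-log steps from near clinical Cmax, or from 10 microM if Cmax unknown.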

[1] = curve of first compound, second compound 0.0316 µM
[2] = curve of first compound, second compound 0.1 µM
[3] = curve of first compound, second compound 0.316 µM
[4] = curve of first compound, second compound 1 µM
[5] = curve of first compound, second compound 3.16 µM
[6] = curve of first compound, second compound 10 µM
[7] = second compound 0.0316 µM, first compound 0.0316 µM
[8] = second compound 0.0316 µM, first compound 0.1 µM
[9] = second compound 0.0316 µM, first compound 0.316 µM
[10] = second compound 0.0316 µM, first compound 1 µM
[11] = second compound 0.0316 µM, first compound 3.16 µM
[12] = second compound 0.0316 µM, first compound 10 µM
[13] = second compound 0.1 µM, first compound 0.0316 µM
[14] = second compound 0.1 µM, first compound 0.1 µM
[15] = second compound 0.1 µM, first compound 0.316 µM
[16] = second compound 0.1 µM, first compound 1 µM
[17] = second compound 0.1 µM, first compound 3.16 µM
[18] = second compound 0.1 µM, first compound 10 µM
[19] = second compound 0.316 µM, first compound 0.0316 µM
[20] = second compound 0.316 µM, first compound 0.1 µM
[21] = second compound 0.316 µM, first compound 0.316 µM
[22] = second compound 0.316 µM, first compound 1 µM
[23] = second compound 0.316 µM, first compound 3.16 µM
[24] = second compound 0.316 µM, first compound 10 µM
[25] = second compound 1 µM, first compound 0.0316 µM
[26] = second compound 1 µM, first compound 0.1 µM
[27] = second compound 1 µM, first compound 0.316 µM
[28] = second compound 1 µM, first compound 1 µM
[29] = second compound 1 µM, first compound 3.16 µM
[30] = second compound 1 µM, first compound 10 µM
[31] = second compound 3.16 µM, first compound 0.0316 µM
[32] = second compound 3.16 µM, first compound 0.1 µM
[33] = second compound 3.16 µM, first compound 0.316 µM
[34] = second compound 3.16 µM, first compound 1 µM
[35] = second compound 3.16 µM, first compound 3.16 µM
[36] = second compound 3.16 µM, first compound 10 µM
[37] = second compound 10 µM, first compound 0.0316 µM
[38] = second compound 10 µM, first compound 0.1 µM
[39] = second compound 10 µM, first compound 0.316 µM
[40] = second compound 10 µM, first compound 1 µM
[41] = second compound 10 µM, first compound 3.16 µM
[42] = second compound 10 µM, first compound 10 µM
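Further: compound exposure lasted seven days before readout.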
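Wherever viability, T/C is given: 100% = DMSO vehicle control wells.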

What does the source list for `Nc1ccccc1NC(=O)c1ccc(CNC(=O)OCc2cccnc2)cc1` + CN1CCN(c2cc(C(=O)Nc3cc4cc(-c5cnn(C)c5)ccc4cn3)ccn2)CC1?
IC50 [1]: 3730 nM; IC50 [2]: 1550 nM; IC50 [3]: < 31.6 nM; IC50 [4]: < 31.6 nM; IC50 [5]: < 31.6 nM; IC50 [6]: < 31.6 nM; viability, T/C [7]: 110%; viability, T/C [8]: 90.6%; viability, T/C [9]: 92.7%; viability, T/C [10]: 101%; viability, T/C [11]: 57%; viability, T/C [12]: 7.85%; viability, T/C [13]: 84.4%; viability, T/C [14]: 78%; viability, T/C [15]: 77.3%; viability, T/C [16]: 65.3%; viability, T/C [17]: 25.8%; viability, T/C [18]: 2.96%; viability, T/C [19]: 22.3%; viability, T/C [20]: 19.1%; viability, T/C [21]: 15.2%; viability, T/C [22]: 15.9%; viability, T/C [23]: 2.42%; viability, T/C [24]: 1.03%; viability, T/C [25]: 1.13%; viability, T/C [26]: 1.4%; viability, T/C [27]: 0.97%; viability, T/C [28]: 1.21%; viability, T/C [29]: 1.83%; viability, T/C [30]: 0.7%; viability, T/C [31]: 1.82%; viability, T/C [32]: 1.26%; viability, T/C [33]: 0.87%; viability, T/C [34]: 2.2%; viability, T/C [35]: 1.61%; viability, T/C [36]: 0.94%; viability, T/C [37]: 1.7%; viability, T/C [38]: 0.57%; viability, T/C [39]: 0.67%; viability, T/C [40]: 2.12%; viability, T/C [41]: 2.19%; viability, T/C [42]: 0.39%

What does the source list for `CC1COCCN1c1cc(C2(S(C)(=N)=O)CC2)nc(-c2ccnc3[nH]ccc23)n1` (stereo not drawn) + CN1CCN(c2cc(C(=O)Nc3cc4cc(-c5cnn(C)c5)ccc4cn3)ccn2)CC1?
IC50 [1]: 2250 nM; IC50 [2]: 1320 nM; IC50 [3]: < 31.6 nM; IC50 [4]: < 31.6 nM; IC50 [5]: < 31.6 nM; IC50 [6]: < 31.6 nM; viability, T/C [7]: 93.4%; viability, T/C [8]: 86.8%; viability, T/C [9]: 105%; viability, T/C [10]: 95%; viability, T/C [11]: 31.2%; viability, T/C [12]: 11.2%; viability, T/C [13]: 76.9%; viability, T/C [14]: 80.5%; viability, T/C [15]: 74.2%; viability, T/C [16]: 59.1%; viability, T/C [17]: 22.6%; viability, T/C [18]: 10.5%; viability, T/C [19]: 23.9%; viability, T/C [20]: 25.9%; viability, T/C [21]: 24.3%; viability, T/C [22]: 24.7%; viability, T/C [23]: 19.7%; viability, T/C [24]: 12.6%; viability, T/C [25]: 0.89%; viability, T/C [26]: 0.78%; viability, T/C [27]: 0.7%; viability, T/C [28]: 1.08%; viability, T/C [29]: 1.18%; viability, T/C [30]: 1.33%; viability, T/C [31]: 1.91%; viability, T/C [32]: 1.72%; viability, T/C [33]: 1.28%; viability, T/C [34]: 1.01%; viability, T/C [35]: 1.48%; viability, T/C [36]: 2.05%; viability, T/C [37]: 0.93%; viability, T/C [38]: 0.87%; viability, T/C [39]: 1.19%; viability, T/C [40]: 1.26%; viability, T/C [41]: 1.01%; viability, T/C [42]: 1.14%

For `CC(CO)NC(=O)c1cc(-c2ccc(Cl)cc2)nn(-c2cnn(C)c2)c1=O` (stereo not drawn) + CNC(=O)c1ccc(Nc2nc(OC3CCCC3)c3c(-c4ccc5nc(C)oc5c4)c[nH]c3n2)c(OC)c1, which IC50 [1] is on record?
Its IC50 is > 10000 nM.

What about the IC50 [2] of the same molecule?
Its IC50 is > 10000 nM.

And the IC50 [3]?
Its IC50 is < 31.6 nM.

What about the IC50 [4] of the same molecule?
Its IC50 is < 31.6 nM.

What about the IC50 [5] of the same molecule?
The IC50 was < 31.6 nM.

And the IC50 [6]?
Its IC50 is < 31.6 nM.

What about the viability, T/C [7] of the same molecule?
The viability, T/C was 109%.

And the viability, T/C [8]?
The viability, T/C was 99.1%.

What about the viability, T/C [9] of the same molecule?
Its viability, T/C is 101%.

And the viability, T/C [10]?
Its viability, T/C is 84.7%.

And the viability, T/C [11]?
Its viability, T/C is 105%.

What about the viability, T/C [12] of the same molecule?
Its viability, T/C is 120%.

And the viability, T/C [13]?
Its viability, T/C is 75.8%.

And the viability, T/C [14]?
The viability, T/C was 70.5%.

What about the viability, T/C [15] of the same molecule?
Its viability, T/C is 72.3%.

What about the viability, T/C [16] of the same molecule?
Its viability, T/C is 71.8%.

What about the viability, T/C [17] of the same molecule?
The viability, T/C was 74%.

And the viability, T/C [18]?
The viability, T/C was 81.5%.

And the viability, T/C [19]?
The viability, T/C was 50%.

And the viability, T/C [20]?
Its viability, T/C is 45.4%.

And the viability, T/C [21]?
Its viability, T/C is 43.1%.

What about the viability, T/C [22] of the same molecule?
The viability, T/C was 49%.

And the viability, T/C [23]?
The viability, T/C was 49.6%.

And the viability, T/C [24]?
Its viability, T/C is 47.8%.

What about the viability, T/C [25] of the same molecule?
Its viability, T/C is 28.9%.

What about the viability, T/C [26] of the same molecule?
The viability, T/C was 31.6%.

What about the viability, T/C [27] of the same molecule?
Its viability, T/C is 29.6%.

What about the viability, T/C [28] of the same molecule?
Its viability, T/C is 32.4%.

And the viability, T/C [29]?
Its viability, T/C is 35.6%.

What about the viability, T/C [30] of the same molecule?
Its viability, T/C is 36%.

And the viability, T/C [31]?
The viability, T/C was 33.3%.

And the viability, T/C [32]?
Its viability, T/C is 30.7%.

What about the viability, T/C [33] of the same molecule?
Its viability, T/C is 29.1%.

And the viability, T/C [34]?
Its viability, T/C is 31.7%.

What about the viability, T/C [35] of the same molecule?
Its viability, T/C is 32%.

And the viability, T/C [36]?
The viability, T/C was 35%.

And the viability, T/C [37]?
Its viability, T/C is 32.5%.

What about the viability, T/C [38] of the same molecule?
The viability, T/C was 31.4%.

And the viability, T/C [39]?
The viability, T/C was 32%.

What about the viability, T/C [40] of the same molecule?
Its viability, T/C is 31.4%.

What about the viability, T/C [41] of the same molecule?
The viability, T/C was 34.3%.

And the viability, T/C [42]?
The viability, T/C was 31.5%.

What does the source list for `NC(=O)C(=Cn1cnc(-c2cc(C(F)(F)F)cc(C(F)(F)F)c2)n1)c1cncnc1`?
viability, T/C (compound 0.00949 µM): 88.2% and 88.1%; viability, T/C (compound 0.03 µM): 84.5% and 87.8%; viability, T/C (compound 0.0949 µM): 113% and 107%; viability, T/C (compound 0.3 µM): 18.2% and 10.8%; viability, T/C (compound 0.949 µM): 4.07% and 5.27%; viability, T/C (compound 3 µM): 1.81% and 3.46%; IC50 (curve of compound): 186 nM and 175 nM
